Laboratory results reported in PMC11535186, “Exploring the Anti-Inflammatory Potential of Ajuga integrifolia Leaves Extract: In Vitro Dual Inhibition of Cyclooxygenase and Lipoxygenase Enzymes” (Advances in Pharmacological and Pharmaceutical Sciences, 2024).

Target: 5-LOX (Glycine max, UniProt P08170)
Experiment: 5-LOX inhibitory assay (linoleic acid substrate, 234 nm)
Type: biochemical
Conditions: read-out: % inhibition 5-LOX
Procedure: The inhibition of LOX was evaluated according to the method described by Malterud with slight modifications. A 100 μL enzyme solution was prepared in boric acid buffer (0.2 M; pH 9.0). To assess the inhibitory effect, 25 μL of each test extract (20, 40, 60, 80, and 100 μg/mL) was added to the enzyme solution. The mixture was then incubated at room temperature for 3 min. […] IC50 values were calculated by regression analysis using Microsoft Excel involving five concentrations. The percentage inhibition of enzyme activity and IC50 values are presented as the mean values ± SD.

Chain of 5-LOX (P08170 whole entry): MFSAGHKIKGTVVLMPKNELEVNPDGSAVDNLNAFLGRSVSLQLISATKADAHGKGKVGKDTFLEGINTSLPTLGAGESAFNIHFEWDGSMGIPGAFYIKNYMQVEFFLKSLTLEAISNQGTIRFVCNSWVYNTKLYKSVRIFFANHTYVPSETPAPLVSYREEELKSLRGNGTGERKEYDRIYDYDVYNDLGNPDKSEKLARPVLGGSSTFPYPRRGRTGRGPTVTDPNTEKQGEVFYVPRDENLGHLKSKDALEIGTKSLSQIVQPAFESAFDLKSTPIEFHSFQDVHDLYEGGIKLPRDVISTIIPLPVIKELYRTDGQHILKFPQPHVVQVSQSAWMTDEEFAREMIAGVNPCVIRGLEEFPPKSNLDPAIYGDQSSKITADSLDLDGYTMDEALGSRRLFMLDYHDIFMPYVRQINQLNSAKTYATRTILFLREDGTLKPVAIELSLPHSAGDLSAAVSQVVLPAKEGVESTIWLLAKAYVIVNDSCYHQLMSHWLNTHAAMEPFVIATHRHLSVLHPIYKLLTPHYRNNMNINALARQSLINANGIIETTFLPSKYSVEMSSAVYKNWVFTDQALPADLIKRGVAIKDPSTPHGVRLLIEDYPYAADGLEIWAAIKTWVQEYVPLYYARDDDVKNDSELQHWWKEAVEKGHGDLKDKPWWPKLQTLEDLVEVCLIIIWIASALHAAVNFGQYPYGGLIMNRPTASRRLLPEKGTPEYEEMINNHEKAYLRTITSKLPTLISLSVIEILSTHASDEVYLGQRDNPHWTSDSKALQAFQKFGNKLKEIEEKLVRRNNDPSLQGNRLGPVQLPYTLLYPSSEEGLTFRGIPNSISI

CC(c1cc2ccccc2s1)N(O)C(N)=O (centres unmarked) [Zileuton]
inhibition at 20 µg/mL: 26.1%
inhibition at 40 µg/mL: 47%
inhibition at 60 µg/mL: 51.9%
inhibition at 80 µg/mL: 64.2%
inhibition at 100 µg/mL: 70.4%
